Measurements published in ChEMBL document CHEMBL1140430, “Novel indole-based peroxisome proliferator-activated receptor agonists: design, SAR, structural biology, and biological activities” (J Med Chem, 2005).
Calls of active or inactive are those of the source. The rule behind the calls is not given here.

Tests used:
[1] = molecular target: T1, Peroxisome proliferator-activated receptor gamma (Homo sapiens, UniProt P37231)
T1 sequence (P37231 whole entry): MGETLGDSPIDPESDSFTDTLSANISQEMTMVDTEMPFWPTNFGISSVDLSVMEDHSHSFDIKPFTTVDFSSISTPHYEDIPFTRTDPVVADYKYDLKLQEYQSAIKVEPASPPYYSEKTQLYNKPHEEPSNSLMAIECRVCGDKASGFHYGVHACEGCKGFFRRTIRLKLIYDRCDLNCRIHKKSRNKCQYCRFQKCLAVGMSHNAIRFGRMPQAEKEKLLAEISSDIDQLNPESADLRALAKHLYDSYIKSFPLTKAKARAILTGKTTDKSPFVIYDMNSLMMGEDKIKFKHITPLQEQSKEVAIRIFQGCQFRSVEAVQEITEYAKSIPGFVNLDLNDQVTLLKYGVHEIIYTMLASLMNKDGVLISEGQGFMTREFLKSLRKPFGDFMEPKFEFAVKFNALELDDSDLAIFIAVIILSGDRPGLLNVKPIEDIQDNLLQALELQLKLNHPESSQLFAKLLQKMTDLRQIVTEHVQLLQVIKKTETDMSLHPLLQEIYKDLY
Description: Displacement of [3H]rosiglitazone from human PPAR gamma by SPA assay

[2] = molecular target: T1, Peroxisome proliferator-activated receptor gamma; type: functional, cell-based, Huh-7
Description: Functional activity at human PPAR gamma in Huh7 cells by transactivation assay

Mus musculus [3] = experiment: Effect on reduction of plasma glucose in orally dosed KKAy/TaJcl mice at 10 mg/kg in a 10 day study; type: functional, organism-based; design: dose 10 mg/kg
Mus musculus [4] = experiment: Effect on reduction of plasma glucose in orally dosed KKAy/TaJcl mice at 30 mg/kg in a 10 day study; type: functional, organism-based; design: dose 30 mg/kg
[5] = molecular target: T2, Peroxisome proliferator-activated receptor alpha (Homo sapiens, UniProt Q07869); experiment: Functional activity at human PPAR alpha in Huh7 cells by transactivation assay; type: cell-based, Huh-7
T2 sequence (Q07869 whole entry): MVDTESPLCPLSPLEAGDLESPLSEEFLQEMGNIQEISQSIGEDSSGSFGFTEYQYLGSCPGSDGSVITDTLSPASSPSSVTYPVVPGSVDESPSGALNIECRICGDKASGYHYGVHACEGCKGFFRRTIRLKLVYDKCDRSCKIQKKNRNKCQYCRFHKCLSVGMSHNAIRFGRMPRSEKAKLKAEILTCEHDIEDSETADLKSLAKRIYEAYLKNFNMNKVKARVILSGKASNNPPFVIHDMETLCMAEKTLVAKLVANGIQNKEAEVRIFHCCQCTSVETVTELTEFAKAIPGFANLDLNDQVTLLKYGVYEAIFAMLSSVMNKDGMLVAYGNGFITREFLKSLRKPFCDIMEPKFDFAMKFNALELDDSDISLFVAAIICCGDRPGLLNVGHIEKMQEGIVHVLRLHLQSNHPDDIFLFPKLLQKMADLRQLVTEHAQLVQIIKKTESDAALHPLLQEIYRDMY

[6] = molecular target: T3, Peroxisome proliferator-activated receptor delta (Homo sapiens, UniProt Q03181)
T3 sequence (Q03181 whole entry): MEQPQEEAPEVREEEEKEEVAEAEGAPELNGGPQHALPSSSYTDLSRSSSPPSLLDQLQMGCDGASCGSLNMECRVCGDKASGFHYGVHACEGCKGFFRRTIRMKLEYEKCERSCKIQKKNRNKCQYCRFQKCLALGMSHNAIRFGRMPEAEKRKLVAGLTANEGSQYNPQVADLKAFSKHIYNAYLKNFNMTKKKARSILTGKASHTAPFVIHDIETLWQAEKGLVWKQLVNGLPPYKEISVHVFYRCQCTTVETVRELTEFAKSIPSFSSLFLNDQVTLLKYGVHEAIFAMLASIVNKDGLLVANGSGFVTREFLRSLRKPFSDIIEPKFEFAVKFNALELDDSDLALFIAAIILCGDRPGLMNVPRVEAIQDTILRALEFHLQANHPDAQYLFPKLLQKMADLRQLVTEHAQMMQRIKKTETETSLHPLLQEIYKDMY
Description: Functional activity at human PPAR delta in Huh7 cells by transactivation assay

[7] = Half life in male BALB/c mice administered with 9.7 mg/kg, iv; type: ADME, organism-based; design: dose 9.7 mg/kg, route intravenous; details: mouse, in vivo
[8] = Volume of distribution in male BALB/c mice administered with 9.7 mg/kg, iv; type: ADME, organism-based; design: dose 9.7 mg/kg, route intravenous; details: mouse, in vivo, read-out: Vss
[9] = Clearance in male BALB/c mice administered with 9.7 mg/kg, iv; type: ADME, organism-based; design: dose 9.7 mg/kg, route intravenous; details: mouse, in vivo
[10] = Area under curve (0-24) in male BALB/c mice administered with 9.7 mg/kg, iv; type: ADME, organism-based; design: dose 9.7 mg/kg, route intravenous; details: mouse, in vivo
[11] = Area under curve (0-24) in male BALB/c mice administered with 35 mg/kg, po; type: ADME, organism-based; design: dose 35 mg/kg, route oral; details: mouse, in vivo
[12] = Maximum concentration in male BALB/c mice administered with 35 mg/kg, po; type: ADME, organism-based; design: dose 35 mg/kg, route oral; details: mouse, in vivo
[13] = Time taken to achieve maximum concentration in male BALB/c mice administered with 35 mg/kg, po; type: ADME, organism-based; design: dose 35 mg/kg, route oral; details: mouse, in vivo
[14] = Half life in male BALB/c mice administered with 35 mg/kg, po; type: ADME, organism-based; design: dose 35 mg/kg, route oral; details: mouse, in vivo
[15] = Oral bioavailability in male BALB/c mice administered with 35 mg/kg, po; type: ADME, organism-based; details: mouse, in vivo

In the case of `CCCc1c(OCCCCCOc2cccc3c2ccn3CC(=O)O)ccc2c(C(F)(F)F)noc12`, the IC50 [1] is reported as 1780 nM and the EC50 [2] is reported as > 10000 nM.

In the case of `CCCc1c(OCCCOc2ccc3c(ccn3CC(=O)O)c2)ccc2c(C(F)(F)F)noc12` [listing 1 of 2 here], the Activity (Mus musculus [3]) is reported as “Active” and the Activity (Mus musculus [4]) is reported as “Active”.

In the case of `CCCc1c(OCCOc2cccc3c2ccn3CC(=O)O)ccc2c(C(F)(F)F)noc12`, the IC50 [1] is reported as 1490 nM and the EC50 [2] is reported as > 10000 nM.

`CCCc1c(OCCCOc2ccc3c(ccn3CCC(=O)O)c2)ccc2c(C(F)(F)F)noc12` showed an IC50 [1] of 584 nM and an EC50 [2] of 1200 nM.

`CCCc1c(OCC(C)COc2cccc3c2ccn3CC(=O)O)ccc2c(C(F)(F)F)noc12` (stereo not drawn) showed an IC50 [1] of 1300 nM and an EC50 [2] of 3030 nM.

Compound `CCCc1c(OCCCOc2cccc3c2ccn3CCC(=O)O)ccc2c(C(F)(F)F)noc12` has an IC50 [1] of 1100 nM and an EC50 [2] of 2190 nM.

Work on `CCCc1c(OCCOc2ccc3c(ccn3CC(=O)O)c2)ccc2c(C(F)(F)F)noc12` yielded an IC50 [1] of 422 nM, an EC50 [2] of 690 nM and an EC50 [5] of 311 nM. It also gave an EC50 [6] of 125 nM.

In the case of `CCCc1c(OCCCCCOc2ccc3c(ccn3CC(=O)O)c2)ccc2c(C(F)(F)F)noc12`, the IC50 [1] is reported as 1050 nM and the EC50 [2] is reported as 1490 nM.

In the case of `CCCc1c(OCCCOc2ccc3c(ccn3CC(=O)[O-])c2)ccc2c(C(F)(F)F)noc12.[Na+]`, the half-life [7] is reported as 6.9 h, the Vd [8] is reported as 0.4 L/kg and the clearance [9] is reported as 0.9 mL/min/kg. It also gave an AUC [10] of 181 µg·h/mL, an AUC [11] of 652 µg·h/mL and a Cmax [12] of 59 µg/mL. The Tmax [13] was 4.7 h, the half-life [14] was 7.8 h and the bioavailability [15] was 100%.

In the case of `CCCc1c(OCCCOc2cccc3c2ccn3CC(=O)O)ccc2cc[nH]c12`, the IC50 [1] is reported as 4810 nM, the EC50 [2] is reported as 1810 nM and the EC50 [5] is reported as 1210 nM. For the same compound, the EC50 [6] was 420 nM.

Work on `CCCc1c(OCCCOc2ccc3c(ccn3CC(=O)O)c2)ccc2c(-c3ccccc3)noc12` yielded an IC50 [1] of 120 nM, an EC50 [2] of 290 nM and an EC50 [5] of 18 nM. The EC50 [6] was 80 nM.

With `CCCc1c(OCCCOc2cccc3c2ccn3C(CC)C(=O)O)ccc2c(C(F)(F)F)noc12` (stereo not drawn) the IC50 [1] was 1280 nM and the EC50 [2] was > 10000 nM.

In the case of `CCCc1c(OCCCOc2cccc3c2ccn3CC(=O)O)ccc2c(-c3ccccc3)coc12`, the IC50 [1] is reported as 3970 nM, the EC50 [2] is reported as 4150 nM and the EC50 [5] is reported as 169 nM. The EC50 [6] was 2130 nM.

In the case of `CCCc1c(OCCCOc2cccc3c2ccn3CC(=O)O)ccc2cc(-c3ccccc3)oc12`, the IC50 [1] is reported as 1950 nM, the EC50 [2] is reported as > 10000 nM and the EC50 [5] is reported as > 10000 nM. The EC50 [6] was 7740 nM.

`CCCc1c(OCCCOc2cccc3c2ccn3CC(=O)O)ccc2c(-c3ccccc3)noc12` gave an IC50 [1] of 127 nM, an EC50 [2] of 430 nM and an EC50 [5] of 2 nM. The EC50 [6] was 320 nM.

Work on `CCCc1c(OCCCCOc2ccc3c(ccn3CC(=O)O)c2)ccc2c(C(F)(F)F)noc12` yielded an IC50 [1] of 105 nM, an EC50 [2] of 280 nM and an EC50 [5] of 1040 nM. It also gave an EC50 [6] of 243 nM.

For `CCCc1c(OCCCCOc2cccc3c2ccn3CC(=O)O)ccc2c(C(F)(F)F)noc12`, the IC50 [1] was 774 nM, the EC50 [2] was 1980 nM and the EC50 [5] was > 10000 nM. For the same compound, the EC50 [6] was > 10000 nM.

With `CCCc1c(OCCC(C)CCOc2cccc3c2ccn3CC(=O)O)ccc2c(C(F)(F)F)noc12` (stereo not drawn) the IC50 [1] was 1450 nM and the EC50 [2] was > 10000 nM.

`CCCc1c(OCCCOc2ccc3ccn(CC(=O)O)c3c2)ccc2c(C(F)(F)F)noc12` showed an IC50 [1] of 1050 nM, an EC50 [2] of 1350 nM and an EC50 [5] of 1820 nM. The EC50 [6] was 80 nM.

For `CCCc1c(OCCCOc2cccc3c2ccn3CC(=O)O)ccc2c(C(F)(F)F)noc12`, the IC50 [1] was 1990 nM, the EC50 [2] was 2390 nM and the EC50 [5] was 186 nM. The EC50 [6] was 610 nM.

`CCCc1c(OCCCOc2ccc3c(ccn3CC(=O)O)c2)ccc2c(C#N)c[nH]c12` showed an IC50 [1] of 759 nM, an EC50 [2] of 9170 nM and an EC50 [5] of 5210 nM. It also gave an EC50 [6] of 2620 nM.

`CCCc1c(OCCCOc2cccc3c2ccn3CC(=O)O)ccc2cc(-c3ccccc3)[nH]c12` showed an IC50 [1] of 1680 nM, an EC50 [2] of 2820 nM and an EC50 [5] of 500 nM. For the same compound, the EC50 [6] was 3340 nM.

`CCCc1c(OCCCOc2ccc3c(ccn3CC(=O)O)c2)ccc2c(C(F)(F)F)noc12` [listing 2 of 2 here] showed an EC50 [5] of 14 nM.

With `CCCc1c(OCCC(C)CCOc2ccc3c(ccn3CC(=O)O)c2)ccc2c(C(F)(F)F)noc12` (stereo not drawn) the IC50 [1] was 1370 nM and the EC50 [2] was > 10000 nM.

Compound `CCCc1c(OCCCOc2ccc3c(ccn3Cc3nn[nH]n3)c2)ccc2c(C(F)(F)F)noc12` has an IC50 [1] of 1120 nM, an EC50 [2] of 898 nM and an EC50 [5] of 474 nM. It also gave an EC50 [6] of 370 nM.

With `CCCc1c(OCCCOc2ccc3c(ccn3CC(=O)O)c2)ccc2c(C(=O)C(F)(F)F)c[nH]c12` the IC50 [1] was 2410 nM, the EC50 [2] was > 10000 nM and the EC50 [5] was 2200 nM. For the same compound, the EC50 [6] was 9170 nM.

For `CCCc1c(OCCCOc2ccc3c(ccn3C(CC)C(=O)O)c2)ccc2c(C(F)(F)F)noc12` (stereo not drawn), the IC50 [1] was 1710 nM and the EC50 [2] was 5900 nM.
